Literature values as cited in US20060035883A1, “Novel serotonin receptor ligands and their uses thereof” (priority 2004, published 2006).

Key:
Conditions in all cases: read-out: Receptor affinities (Ki)
D2 = D2 (Homo sapiens, UniProt P14416)
5-HT3 = molecular target: T1, 5-HT3 (Homo sapiens, UniProt P46098)
T1 sequence (P46098 24-478): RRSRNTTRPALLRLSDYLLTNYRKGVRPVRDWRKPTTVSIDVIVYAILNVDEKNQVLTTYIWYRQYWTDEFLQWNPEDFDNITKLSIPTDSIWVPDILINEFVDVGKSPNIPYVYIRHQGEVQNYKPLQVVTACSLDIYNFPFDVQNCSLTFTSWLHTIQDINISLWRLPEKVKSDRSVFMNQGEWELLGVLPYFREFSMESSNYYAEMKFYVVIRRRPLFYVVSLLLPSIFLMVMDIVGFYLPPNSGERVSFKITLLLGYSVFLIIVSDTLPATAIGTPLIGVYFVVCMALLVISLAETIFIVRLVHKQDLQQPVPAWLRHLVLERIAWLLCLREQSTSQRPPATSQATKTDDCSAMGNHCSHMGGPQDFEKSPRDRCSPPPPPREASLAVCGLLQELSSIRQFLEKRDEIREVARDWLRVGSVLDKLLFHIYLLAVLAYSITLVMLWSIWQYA

5-HT2C = molecular target: T2, 5-HT2C (Homo sapiens, UniProt P28335)
T2 sequence (P28335 33-458): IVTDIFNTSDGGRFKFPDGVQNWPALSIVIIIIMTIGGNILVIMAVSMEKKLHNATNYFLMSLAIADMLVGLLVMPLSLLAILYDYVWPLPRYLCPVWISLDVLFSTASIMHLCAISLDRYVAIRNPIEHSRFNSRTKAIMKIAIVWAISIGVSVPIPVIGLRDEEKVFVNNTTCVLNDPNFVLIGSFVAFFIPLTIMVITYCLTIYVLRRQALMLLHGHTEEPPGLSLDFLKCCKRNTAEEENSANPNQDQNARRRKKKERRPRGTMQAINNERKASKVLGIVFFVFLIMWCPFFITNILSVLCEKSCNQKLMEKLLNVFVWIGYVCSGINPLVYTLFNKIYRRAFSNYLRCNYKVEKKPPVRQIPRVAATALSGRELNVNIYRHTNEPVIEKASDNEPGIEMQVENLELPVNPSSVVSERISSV

α1 = molecular target: α1
α2 = molecular target: α2

Sequence of D2 (P14416 whole entry): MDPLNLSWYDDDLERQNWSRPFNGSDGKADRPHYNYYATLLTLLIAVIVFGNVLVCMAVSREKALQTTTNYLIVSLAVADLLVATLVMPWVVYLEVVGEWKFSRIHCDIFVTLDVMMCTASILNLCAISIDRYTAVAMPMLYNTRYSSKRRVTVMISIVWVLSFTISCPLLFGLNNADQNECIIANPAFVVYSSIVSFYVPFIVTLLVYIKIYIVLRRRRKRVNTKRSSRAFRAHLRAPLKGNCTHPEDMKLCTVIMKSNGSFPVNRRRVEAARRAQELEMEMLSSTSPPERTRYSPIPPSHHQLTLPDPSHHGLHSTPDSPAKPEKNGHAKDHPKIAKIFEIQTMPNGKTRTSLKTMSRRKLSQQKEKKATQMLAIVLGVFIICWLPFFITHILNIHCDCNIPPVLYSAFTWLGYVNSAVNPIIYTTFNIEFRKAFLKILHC

| SMILES | Ki (D2) | Ki (5-HT3) | Ki (5-HT2C) | Ki (α1) | Ki (α2) |
| --- | --- | --- | --- | --- | --- |
| CN1CCN2c3ccccc3Cc3ccccc3C2C1 (stereo not drawn) [Mianserin] | > 1000 nM | – | – | – | – |
| CN1CCN2c3ncccc3Cc3ccccc3C2C1 (stereo not drawn) [Mirtazepine, mirtazepine] | > 1000 nM | 8 nM | 12 nM | 500 nM | 65 nM |
